tested on: Plasmodium falciparum; assay: GSK_TCMDC: Inhibition of Plasmodium falciparum 3D7 in whole erythrocytes, using parasite LDH activity as an index of growth.; assay type: functional, organism-based; conditions: Plasmodium falciparum, 3D7

Compared with `O=C(N/N=C/c1nc2ccccc2[nH]1)c1cccc([N+](=O)[O-])c1`, `Cc1cc(N/N=C/c2ccccc2[N+](=O)[O-])c2ccc(F)cc2n1` is 1.8-fold lower in XC50: 628 nM for the first, 350 nM for the second.

`CCC[C@@H](/C=N/N(C)C(=O)OC(C)(C)C)NC(=O)[C@H](CC(C)C)NC(=O)c1cc2cccc(OC)c2o1` and `COc1ccc(NC(=O)[C@H](CC(C)C)Nc2cc(C)nc(NCCOc3ccccc3)n2)cc1` are within 1.5-fold of each other in XC50: 1080 nM for the first, 800 nM for the second.

`C=CCc1cccc(CN2CCC(c3cc(O)nc(-c4ccccn4)n3)CC2)c1O` and `CC1(C)CCCN(c2ncc(-c3cccc(CNCc4ccccc4O)c3)cn2)C1` are within 1.5-fold of each other in XC50: 1100 nM for the first, 886 nM for the second.

Going from `CSc1ccc2nccc(Nc3ccc(Oc4ccccc4)cc3)c2c1` to `COc1cc2nc(NCCCO)nc(Nc3ccc(Oc4ccccc4)cc3)c2cc1OC`, the XC50 falls from 871 nM to 145 nM (6-fold).

Compared with `Cc1cc(CNCCCCCNCc2cccc([N+](=O)[O-])c2)ccc1O`, `COc1c(C)cc(I)cc1CNCCCNc1cc(=O)c2ccccc2[nH]1` is 1.6-fold higher in XC50: 784 nM for the first, 1280 nM for the second.

Going from `Cc1cccc2nc(-c3cccc(-c4cccc(NC(=O)c5cnccc5C(F)(F)F)c4)c3)[nH]c12` to `CC(=O)Nc1ccc(C(=O)Nc2ccc(-c3cccc(-c4nc5cccc(C)c5[nH]4)c3)cc2)cn1`, the XC50 falls from 659 nM to 265 nM (2.5-fold).

First: COc1ccc(CNCCc2cccs2)cc1-c1ccc(S(=O)(=O)NCCN2CCCC2)cc1
Second: CCCc1ccc(S(=O)(=O)NC2CCN(c3ccnc(Nc4ccc(OC)cc4)n3)C2)cc1 (stereo not given)
The XC50 of the first is 1.8-fold lower: 655 nM for the first, 1190 nM for the second.

`COc1ccc2c(=NN=Cc3cccc(Cl)c3)cc(C)[nH]c2c1` and `COc1ccc(Oc2ccc(-c3c(O)cc(C)nc3C)cc2)cc1` are within 1.5-fold of each other in XC50: 732 nM for the first, 612 nM for the second.

`Cc1ccc2c(OCCN3CCC(Cc4ccc5c(c4)NC(=O)CO5)CC3)cc(F)cc2n1` and `COc1cc(CN2CCC(N3CCc4cc(NC(=O)c5cc(C)on5)ccc43)C2)ccc1F` (stereo not given) are within 1.5-fold of each other in XC50: 755 nM for the first, 607 nM for the second.

First: C=C(F)c1sc(CNCCCNc2nc3ccccc3[nH]2)c(C)c1Br
Second: O=c1cc(NCCCNC2CCOc3c(Cl)cccc32)[nH]c2ccccc12 (stereo not given)
The XC50 of the first is 2.3-fold lower: 367 nM for the first, 832 nM for the second.

Compared with `CN1C(=C2SC(=Nc3ccc4ncccc4c3)N(Cc3ccccc3)C2=O)Sc2ccc(Cl)cc21`, `O=c1c2ccccc2[nH]c2nc3ccccc3c(Nc3ccccc3)c12` is 7.5-fold lower in XC50: 1060 nM for the first, 141 nM for the second.

`Cc1nc(N)nc(N)c1CCCOc1ccccc1Br` and `COc1cccc(OC)c1OCCCOc1c(C)nc(N)nc1N` are within 1.5-fold of each other in XC50: 424 nM for the first, 459 nM for the second.

`O=C(Nc1ccc(Oc2ccccc2)cc1)N1CCC(CCN2CCC(c3c[nH]c4ccccc34)CC2)CC1` and `COc1ccc2[nH]cc(C3CCN(CCC4CCN(C(=O)/C=C/c5ccc(Cl)c(Cl)c5)CC4)CC3)c2c1` are within 1.5-fold of each other in XC50: 795 nM for the first, 862 nM for the second.

First: N=C(N)Nc1nc(-c2cccc(NC(=O)CCCCCCCON3C(N)=NC(N)=NC34CCCCC4)c2)cs1
Second: CCCCCCCC1CC(CC(=O)Nc2ccnc3ccc(OC)cc23)CN1 (stereo not given)
The XC50 of the first is 12-fold lower: 43.5 nM for the first, 511 nM for the second.

`O=C(Nc1ccc(C(=O)N(Cc2ccc3c(c2)OCO3)C2CCCC2)cc1)c1cccs1` and `O=C(Nc1ccc(C(F)(F)F)cc1)c1cccc(S(=O)(=O)NC2CCN(CC3CCCCC3)C2)c1` (stereo not given) are within 1.5-fold of each other in XC50: 650 nM for the first, 690 nM for the second.

Compared with `CCc1cn2c3c(cc(C(=O)N[C@@H](Cc4ccccc4)[C@H](O)CNCc4ccc(C)cc4)cc13)N(C)S(=O)(=O)CC2`, `CCCc1cn2c3c(cc(C(=O)N[C@@H](Cc4ccccc4)[C@H](O)CNC4CCOCC4)cc13)N(CC)S(=O)(=O)CC2` is 5.5-fold lower in XC50: 547 nM for the first, 98.8 nM for the second.

`COc1cccc(-c2cc(C(=O)Nc3cc(Oc4ccc(O)cc4)cc([N+](=O)[O-])c3)on2)c1` and `O=C(Nc1ccc(-c2cccc(-c3nc4cc(F)ccc4[nH]3)c2)cc1)c1ccncc1` are within 1.5-fold of each other in XC50: 1050 nM for the first, 719 nM for the second.

Compared with `CCCCCCNCCOc1ccc(-c2nc(-c3ccccc3)c(-c3ccccc3)[nH]2)cc1`, `Cc1cc(N[C@@H](CC(C)C)C(=O)NCCOc2ccccc2)nc(NCCc2ccccc2)n1` is 2.3-fold higher in XC50: 669 nM for the first, 1510 nM for the second.

Compared with `Fc1ccc(Nc2ccnc3cc(-c4ccc(CNCCN5CCOCC5)o4)ccc23)c(Cl)c1`, `COc1ccccc1NS(=O)(=O)c1cc(C(=O)Nc2ccc(N3CCOCC3)c(S(=O)(=O)Nc3ccccc3Cl)c2)ccc1Cl` is 4.5-fold higher in XC50: 186 nM for the first, 832 nM for the second.

`CCCCCCCCCCN1C(=O)C2C(CCCCNC(C)=O)NC3(C(=O)N(Cc4ccc(C(C)(C)C)cc4)c4ccccc43)C2C1=O` (stereo not given) and `CN(C)CCCN1CCN(Cc2ccc(-c3ccc(-c4nc5ccccc5[nH]4)s3)cc2)CC1` are within 1.5-fold of each other in XC50: 993 nM for the first, 820 nM for the second.

First: CN(C)CCOc1ccc(-c2cc(-c3ccncc3)c(-c3ccc(Cl)c(O)c3)o2)cc1
Second: Cc1cccc2nc(-c3ccc(-c4ccc(NC(=O)C(C)CN(C)C)cc4)cc3)[nH]c12 (stereo not given)
The XC50 of the first is 3.2-fold lower: 214 nM for the first, 681 nM for the second.

`Cc1cccc2nc(-c3ccc(-c4ccc(CN5CCCC5CN)cc4)cc3)[nH]c12` (stereo not given) and `CCNC(=O)Nc1cccc(-c2cccc(-c3nc4cc(C(F)(F)F)ccc4[nH]3)c2)c1` are within 1.5-fold of each other in XC50: 815 nM for the first, 678 nM for the second.

`O=C(N[C@@H](Cc1ccccc1)[C@H](O)CNCCC(F)(F)F)c1cccc(CCC2CC2)c1` and `CN(C)c1cc(C(=O)N[C@@H](Cc2ccccc2)[C@H](O)CNC2CCCCC2)cc2[nH]ccc12` are within 1.5-fold of each other in XC50: 1020 nM for the first, 1070 nM for the second.

`c1cncc(NCc2ccc(-c3cc4ccncc4cc3OC3CCNCC3)s2)c1` and `Cc1ccc(NC(=O)Nc2ccc(Cn3ncc(N4CCCNCC4)c(Cl)c3=O)cc2)cc1` are within 1.5-fold of each other in XC50: 981 nM for the first, 918 nM for the second.

`O=C(c1ccc(Br)o1)N1N=C(c2cccs2)CC1c1ccc(Br)cc1` (stereo not given) and `CC[C@H](C)CNC(=O)c1ccnc(-c2ccc(CNC3Cc4ccccc4C3)cc2)c1` are within 1.5-fold of each other in XC50: 513 nM for the first, 569 nM for the second.

Going from `O=C(C1CC1c1ccccc1)N(Cc1ccc(-c2ccc(CNCCc3ccccc3)cc2)cc1)C1CCNCC1` (stereo not given) to `CC1(C)NC(N)=NC(=N)N1OCc1ccc(-c2ccccc2)cc1`, the XC50 falls from 1110 nM to 3.2 nM (350-fold).

First: Cc1nc(-c2ccc(-c3ccc(NC(=O)c4coc5ccc(N6CC(C)N(C)C(C)C6)cc45)cc3)c(C)c2)no1 (stereo not given)
Second: CCOc1cc(C(=O)Nc2ccc(-c3nc4ccccc4[nH]3)cc2)cc(OCC)c1OCC
The XC50 of the first is 3.3-fold higher: 767 nM for the first, 234 nM for the second.

First: COc1cc(Cc2cnc(N)nc2N)cc(OC)c1OCCNC(=O)[C@@H](N)CCC(=O)O
Second: CCCn1cc2c(ccc3nc(N)nc(N)c32)n1
The XC50 of the first is 10-fold higher: 843 nM for the first, 81.4 nM for the second.

Compared with `COc1ccc2nccc([C@@H](O)CN3CCC(NC(=O)c4ccc(C5(C(F)(F)F)N=N5)cc4)CC3)c2c1`, `O=C(NC1CCN(Cc2ccsc2)CC1)c1ccc(-c2cccc(C(F)(F)F)c2)s1` is 1.5-fold higher in XC50: 931 nM for the first, 1440 nM for the second.

Compared with `CC(C)CCNC(=N)Nc1ccc(OCCCCCOc2ccc(NC(=N)NCCC(C)C)cc2)cc1`, `CC(CO)(CO)NCc1cc2ccc3ccsc3c2c2ccccc12` is 4.7-fold lower in XC50: 1080 nM for the first, 229 nM for the second.

`COCCn1c(Sc2ncnc3sccc23)nc2ccccc21` and `COc1ccc(-c2c3c(=O)n(C)c(=O)n(C)c3c3nnc4ccccc4n23)cc1` are within 1.5-fold of each other in XC50: 879 nM for the first, 991 nM for the second.

Compared with `CCCCCCN1CCC(NCc2cccc(C(F)(F)F)c2)CC1`, `FC(F)(F)c1ccc2nccc(NCc3ccccc3)c2c1` is 4.7-fold higher in XC50: 246 nM for the first, 1150 nM for the second.

`CCN(c1ccc(F)cc1)S(=O)(=O)c1cc(Br)cc2c1N(C(=O)C1CC1)CC2` and `COc1cc2c(cc1OCCN1CCC(N)CC1)N(C(=O)/C=C/c1ccccc1Cl)CC2` are within 1.5-fold of each other in XC50: 943 nM for the first, 1120 nM for the second.

Going from `CC1=C(C(=O)Nc2ccc(Cl)cc2)C(c2ccncc2)n2nc(C(F)(F)F)nc2N1` (stereo not given) to `Cc1cc(C(F)(F)F)cc(-n2ncc(-c3ccc(C(=O)NCc4ccccc4N)cc3)c2N)n1`, the XC50 falls from 935 nM to 453 nM (2.1-fold).

`O=c1n(CC2CCCCC2)c2cc(Cl)cc(OCCNc3ccncc3)c2n1CC1CCCCC1` and `CNC(=O)C1Cc2c([nH]c3c(C)cccc23)C2(N1)C(=O)Nc1ccc(OC(F)(F)F)cc12` (stereo not given) are within 1.5-fold of each other in XC50: 593 nM for the first, 464 nM for the second.
